The subject of assay [1] is ENTR indicator strains. Kind of assay: Dose response deferred antagonism assay, producer M18: average over indicators. The format is cell-based.
Another assay relates to salB. The format is cell-based, S. salivarius K12. To be noted: K12.
The subject of assay [2] is pathogens implicated in the ENT and Skin infections. Put plainly: Deferred antagonism assay with other S. salivarius producer strains. The format is cell-based. On the procedure:
Method: Preparation of solid culture media—CABCa agar plates were prepared with or without either 2.5% w/w raffinose or 0.5% w/w galactose by the addition of 0.5% (w/v) calcium carbonate to solid CAB agar in bottles and then melted by autoclaving at 110° C. for 10 mins. Once cooled, filter sterilised solutions of the saccharides or distilled water were added and mixed and then 20 ml pipetted into petri dishes.
Preparing S. salivarius producer suspension, about 6 colonies of each S. salivarius strain were added into separate tubes containing 1 ml THB and mixed well.
Deferred antagonism assay—100 μl of S. salivarius producer suspensions was dispensed onto CABCa plates supplemented with or without raffinose or galactose as droplets in a vertical line down the middle of the test plate. This suspension was then spread as 1.2 cm streak down the middle of the plate using a cutdown plastic spreader. Plates were incubated for 18 hours at 37° C., 5% CO2 in air.
After incubation, the bacterial growth was then removed from the agar plate using a sterile cotton swab. The pH of the producer streak was then adjusted by placing a 1 cm wide strip of filter paper soaked in 0.5M sodium carbonate pH 11 onto the agar plate to buffer the acid and adjust the pH up to around pH 6.5-7.5.
Plates were surface sterilised with chloroform vapour for 30 minutes, followed by air drying for 30 minutes.
Bacterial indicator suspensions were prepared by adding 3-9 colonies (depending on the size) of each strain into separate tubes containing 3 ml THB. These suspensions were then swabbed across the agar plate perpendicular to the producer streak and then the agar plate was incubated for a further 18 hours at 37° C., 5% CO2 in air.

Assay [3] relates to ENTR indicator strains. Put plainly: Dose response deferred antagonism assay, producer K12: average over indicators. The format is cell-based. On the procedure: 1-2 producer strain colonies were transferred from a stock plate into 900 μL of suspension solution using a fresh cotton swab. Following this, suspensions were vortexed, and a sample was inoculated onto solid culture media using a fresh cotton swab. The inoculation was a streak that runs diametrically across the agar plate in a 1.5 cm wide strip. The plate was then incubated. Following incubation all visible colonies were removed by swabbing them from the agar surface. The plates were then treated with chloroform by dispensing 2 ml of chloroform onto 4 cm×4 cm piece of cloth and sealing the inverted agar plate on top for 30 minutes. The plates were then air dried for 30 minutes following chloroforming. 1-2 indicator strain colonies were then transferred from a stock plate into complementary suspension solution. […]
Each indicator streak was prepared with fresh a suspension containing cells from a corresponding stock plate containing the indicator strain of interest. […] Results were measured by qualitatively reviewing the subsequent (if any) sizes of the zones of inhibition (ZOI) of indicator strain colony growth. […]
CABCa agar plates containing various concentrations of saccharide were prepared according to the methods described in Method 1. […] Results were recorded by measuring the size of the zone of inhibition (ZOI) in mm. […]

Assay [4] relates to halitosis-causing gram-negative bacteria F. nucleatum, P. gingivalis and P. intermedia. Put plainly: Deferred antagonism assay (anaerobic), producer K12. The class given is cell-based. As to conditions: 2.5% w/w raffinose; 0.5% w/w galactose; or combination. On the procedure: Method: CABCa agar plates were prepared with or without 2.5% w/w raffinose, 0.5% w/w galactose or a combination of both saccharides by the addition of 0.5% (w/v) calcium carbonate to solid CAB agar in bottles and then melted by autoclaving at 110° C. for 10 mins. Once cooled, filter sterilised solutions of the saccharides or distilled water were added and mixed and then 20 ml pipetted into petri dishes.
A deferred antagonism assay was conducted using K12 or M18 raw ingredient suspended in THB. This was spread as a 1.2 cm streak containing approximately 1-2×10^6 cfu down the middle of a CABCa control or CABCa galactose supplemented test plate. After 18 hrs growth at 37° C., 5% CO2 in air, bacterial growth was removed, and the pH of the agar in the initial streak was measured and adjusted to a pH of 6.5-7.5 using 0.5M sodium carbonate pH11 before sterilizing the agar surface using chloroform vapor. Bacterial test strains were suspended in THB and swabbed across the plates perpendicular to the initial streak and then the plates were incubated at 37° C. in an anaerobic jar containing an anaeroGen sachet for 4 days. Zones of inhibition for each test strain were then measured (mm).

Assay [5] relates to S. pyogenes strains or other pathogens. Kind of assay: Inhibitory activity of K12 grown in M17 broth with saccharides. The class given is cell-based. As to conditions: saccharide 0.83% or 2.5% w/v, vs control.

Where two headings read alike, the source gives them in different places.

Method for salB: Method: CABCa agar plates were prepared either with or without 2.5% w/w raffinose, 0.5% w/w galactose, combined 2.5% w/w raffinose and 0.5% w/w galactose, 0.5% w/w glucose or 2.5% w/w glucose by the addition of 0.5% (w/v) calcium carbonate to solid CAB agar in bottles and then melted by autoclaving at 110° C. for 10 mins. Once cooled, filter sterilised solutions of the saccharides or distilled water were added and mixed and then 20 ml pipetted into petri dishes.
A S. salivarius K12 raw ingredient suspension was prepared in PBS containing approx. 1×10^8cfu/ml. 100p of this suspension was spread evenly onto control and test agar plates. Plates were incubated at 37° C. with 5% CO2 for approx, 19 hrs.
Bacterial growth from each plate was collected using a sterile cotton swab and resuspended into 1 ml PBS in a screw capped tube. The bacterial cells were then pelleted by centrifugation at 13,000 rpm for 1 minute at 4° C. The supernatant was removed, and the cell pellet was resuspended in 1 ml of TRIzol reagent. The bacterial cell suspension was transferred into a 2 ml screw-capped tube containing 0.1 mm Zirconia/silicon beads. […]
The cDNA samples from K12 raw ingredient grown on the CABCa control plates and CABCa supplemented with the various saccharides were then analysed by qPCR for the levels of gene expression of the following genes: salA, salB, salQ and ureC. […]

Consider `O=C[C@H](O)[C@@H](O)[C@@H](O)[C@H](O)CO` [Galactose, D-galactose], for which the “Average ZOI change” value in the assay with ENTR indicator strains [1] (1.5% galactose) is given as 11.5 mm; in the assay with ENTR indicator strains [3] (2% galactose), 9.5 mm. The “increase in gene expression of salB relative to no sugar control” value in the assay on salB (0.5% w/w sugar in CABCa agar) was 641 fold. In addition, in assay [2] (0.5% w/w galactose, compared with K12 and M18), the “induction of inhibitory effect in other S. salivarius strains” value is “does not induce the same inhibitory effect”. For the same compound, in assay [4], the “antimicrobial activity of K12 against halitosis-causing gram-negative bacteria” value is listed as “did not induce antimicrobial activity”. For the same compound, the “inhibitory activity of K12 grown in presence of saccharide” value in assay [5] is on record as “greater inhibitory activity”.
Turning to `OC[C@H]1O[C@H](OC[C@H]2O[C@H](O[C@]3(CO)O[C@H](CO)[C@@H](O)[C@@H]3O)[C@H](O)[C@@H](O)[C@@H]2O)[C@H](O)[C@@H](O)[C@H]1O` [Raffinose, D-(+) Raffinose pentahydrate], the “Average ZOI change” value in the assay on ENTR indicator strains [1] (1.5% raffinose) was 22.16 mm; in the assay on ENTR indicator strains [3] (1.5% raffinose), 10.33 mm. Besides, in the assay with salB (2.5% w/w sugar in CABCa agar), the “increase in gene expression of salB relative to no sugar control” value stood at 241 fold. The “induction of inhibitory effect in other S. salivarius strains, exception ATCC 7073” value in assay [2] (2.5% w/w raffinose, compared with K12 and M18) was “does not induce same inhibitory effect”. Also, in assay [2] (supplemented with 2.5% w/w raffinose), the “antimicrobial activity of S. salivarius strain ATCC 7073” value was “antimicrobial activity”. Moreover, the “antimicrobial activity of K12 against halitosis-causing gram-negative bacteria” value in assay [4] was “inhibit a variety of strains”. The “inhibitory activity of K12 grown in presence of saccharide” value in assay [5] is listed as “greater inhibitory activity”.

For the origin of these results see patent publication US20240390434A1, “PROBIOTIC ENHANCERS AND USES THEREOF” (Blis Technologies Limited, priority 2021, published 2024).
